Results: the supplement of paper PMC10307832

How the values were obtained:
Assay in all cases: relative viability (nuclei count vs DMSO), 5 days (fraction); higher = more cells survive
[1] = compound: C1=CC=C(C(=C1)C2=CC=C(C=C2)C3=CSC4=C3C(=C(C(=O)N4)C#N)O)O + CCNC(=O)c1noc(-c2cc(C(C)C)c(O)cc2O)c1-c1ccc(CN2CCOCC2)cc1 [Luminespib] (partner 0.01 µM)
Summary of the method: (§1)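 Nuclei were stained with Hoechst during a one-step fixation (final 0.05% Triton X-100, 1% formaldehyde, 1 ug/ml Hoechst) carried out 5 days after dosing, then counted on 4× images. The cells, lung cancer lines in 1536-well plates, had been dosed by pin tool the day after seeding with one drug alone or a fixed anchor-drug dose plus five library-drug doses (not always all listed) in √10 steps. Relative viability is the nuclei count in treated wells divided by that in vehicle wells, and each value is the median of duplicate plates.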

[2] = compound: C1=CC=C(C(=C1)C2=CC=C(C=C2)C3=CSC4=C3C(=C(C(=O)N4)C#N)O)O + CS(=O)(=O)CCNCc1ccc(-c2ccc3ncnc(Nc4ccc(OCc5cccc(F)c5)c(Cl)c4)c3c2)o1 [Lapatinib] (partner 2 µM)
Summary of the method: as §1

TGX 221 + Navitoclax = compound: CC1=CN2C(=O)C=C(N=C2C(=C1)C(C)NC3=CC=CC=C3)N4CCOCC4 [TGX 221] + CC1(C)CCC(c2ccc(Cl)cc2)=C(CN2CCN(c3ccc(C(=O)NS(=O)(=O)c4ccc(N[C@H](CCN5CCOCC5)CSc5ccccc5)c(S(=O)(=O)C(F)(F)F)c4)cc3)CC2)C1 [Navitoclax] (partner 0.5 µM)
Summary of the method: as §1

Ricolinostat + OSI-027 = compound: O=C(CCCCCCNC(=O)c1cnc(N(c2ccccc2)c2ccccc2)nc1)NO [Ricolinostat] + COc1cccc2cc(-c3nc([C@H]4CC[C@H](C(=O)O)CC4)n4ncnc(N)c34)[nH]c12 [OSI-027] (partner 0.5 µM)
Summary of the method: as §1

| Cell Line | relative viability ([1]; first compound 0.08 µM) | relative viability ([1]; first compound 0.253 µM) | relative viability ([1]; first compound 0.8 µM) | relative viability ([1]; first compound 2.53 µM) | relative viability ([1]; first compound 8 µM) | relative viability ([2]; first compound 0.08 µM) | relative viability ([2]; first compound 0.253 µM) | relative viability ([2]; first compound 0.8 µM) | relative viability ([2]; first compound 2.53 µM) | relative viability ([2]; first compound 8 µM) | relative viability (TGX 221 + Navitoclax; first compound 0.08 µM) | relative viability (TGX 221 + Navitoclax; first compound 0.253 µM) | relative viability (TGX 221 + Navitoclax; first compound 0.8 µM) | relative viability (TGX 221 + Navitoclax; first compound 2.53 µM) | relative viability (TGX 221 + Navitoclax; first compound 8 µM) | relative viability (Ricolinostat + OSI-027; first compound 0.08 µM) | relative viability (Ricolinostat + OSI-027; first compound 0.253 µM) | relative viability (Ricolinostat + OSI-027; first compound 0.8 µM) | relative viability (Ricolinostat + OSI-027; first compound 2.53 µM) |
| --- | --- | --- | --- | --- | --- | --- | --- | --- | --- | --- | --- | --- | --- | --- | --- | --- | --- | --- | --- |
| HCC-827 | 0.639 | 0.845 | 0.573 | 0.7 | 0.43 | 0.185 | 0.201 | 0.197 | 0.184 | 0.18 | 0.951 | 1.02 | 1.02 | 1.05 | 0.982 | 0.687 | 0.83 | 0.721 | 0.841 |
| HOP-62 | 0.925 | 0.892 | 0.876 | 1.05 | 0.762 | 0.766 | 0.888 | 1.1 | 1.19 | 0.871 | 1.04 | 1.06 | 1.09 | 1.12 | 1.06 | 0.636 | 0.815 | 0.79 | 0.625 |
| IA-LM | – | – | – | – | – | 0.538 | 0.413 | 0.599 | 0.952 | 0.537 | 0.722 | 0.707 | 1.02 | 0.849 | 1.02 | – | – | – | – |
| LC-2-ad | 1.08 | 1.4 | 1.01 | 1.23 | 0.983 | 0.781 | 1.01 | 0.903 | 1.1 | 1.11 | 0.514 | – | 0.424 | 0.348 | 0.361 | 0.723 | 0.711 | 0.635 | 0.517 |
| LCLC-97TM1 | 0.971 | 1.07 | 0.78 | 0.729 | 0.654 | 1.01 | 1.6 | 1.05 | 0.68 | 0.92 | 0.389 | 0.264 | 0.42 | 0.464 | 0.481 | 0.271 | 0.524 | 0.541 | 0.27 |
| LCLC-103H | 0.87 | 0.98 | 1.06 | 0.929 | 1.06 | – | – | – | – | – | – | – | – | – | – | 0.363 | 0.447 | 0.48 | 0.444 |
| LK-2 | – | 0.192 | 0.193 | 0.184 | 0.191 | – | 0.884 | 0.932 | 1.05 | 0.696 | 0.98 | 0.84 | 0.81 | 0.996 | 0.948 | 0.202 | 0.234 | 0.212 | 0.208 |
| LOU-NH91 | 0.439 | 0.41 | 0.304 | 0.364 | 0.33 | 0.751 | 0.807 | 0.788 | 0.601 | 0.738 | 0.705 | 0.647 | 0.707 | 0.681 | 0.544 | 0.511 | 0.713 | 0.672 | 0.647 |
| LU99A | 0.245 | 0.234 | 0.295 | 0.261 | 0.242 | 0.97 | 1.09 | 1.13 | 1.12 | 0.955 | 0.647 | 0.756 | 0.824 | 0.799 | 0.811 | 0.243 | 0.296 | 0.305 | 0.249 |
| LXF-289 | 0.764 | 0.651 | 0.8 | 0.73 | 0.632 | 0.89 | 0.895 | 0.917 | 0.908 | 0.924 | 0.966 | 0.967 | 0.929 | 0.882 | 0.945 | 0.668 | 0.906 | 0.782 | 0.749 |
| NCI-H23 | – | 0.19 | 0.212 | 0.197 | 0.211 | 1.36 | 1.09 | 1.19 | 1.08 | 0.843 | 0.753 | 0.763 | 0.832 | 0.608 | 0.713 | 0.496 | 0.571 | 0.578 | 0.465 |
| NCI-H358 | 0.304 | 0.331 | 0.293 | 0.603 | 0.221 | 0.431 | 0.473 | 0.549 | 0.49 | 0.41 | – | – | – | – | – | 0.584 | 0.802 | 0.734 | 0.954 |
| NCI-H441 | 0.344 | 0.352 | 0.269 | 0.308 | 0.344 | – | – | – | – | – | 0.494 | 0.529 | 0.599 | 0.998 | 0.797 | – | 0.725 | 0.595 | 0.59 |
| NCI-H522 | – | 1.28 | 1.2 | 1.27 | 0.937 | – | – | – | – | – | – | – | – | – | – | 0.822 | 0.736 | 0.665 | 0.69 |
| NCI-H650 | 0.778 | 0.898 | 0.67 | 0.902 | 0.78 | 0.625 | 1.09 | 0.742 | 1.09 | 0.763 | – | – | – | – | – | 0.405 | 0.585 | 0.503 | 0.374 |
| NCI-H661 | 0.808 | 0.985 | 0.964 | 0.9 | 0.898 | 0.446 | 0.481 | 0.501 | 0.507 | 0.382 | – | – | – | – | – | 0.501 | 0.669 | 0.712 | 0.652 |
| NCI-H1299 | – | – | – | – | – | 0.923 | 0.929 | 0.987 | 0.961 | 0.948 | 1.01 | 1.03 | 1.04 | 1.07 | 0.985 | – | – | – | – |
| NCI-H1563 | 0.525 | 0.613 | 0.551 | 0.587 | 0.517 | 0.715 | 0.868 | 1.01 | 0.881 | 0.989 | – | – | – | – | – | 0.759 | 0.731 | 0.774 | 0.62 |
| NCI-H1623 | 0.454 | 0.591 | 0.817 | 0.434 | 0.419 | – | – | – | – | – | – | – | – | – | – | 0.389 | 0.428 | 0.414 | 0.312 |
| NCI-H1648 | – | – | – | – | – | – | – | – | – | – | – | – | – | – | – | 0.28 | 0.281 | 0.249 | 0.259 |
| NCI-H1703 | – | – | – | – | – | 0.896 | 1.2 | 0.945 | 1.16 | 0.939 | 1.05 | 0.822 | 0.969 | 0.97 | 0.633 | – | – | – | – |
| NCI-H2342 | 0.742 | 0.816 | 0.788 | 0.718 | 0.68 | – | – | – | – | – | – | – | – | – | – | 0.515 | 0.588 | 0.575 | 0.633 |
| SW 900 | 0.161 | 0.174 | 0.186 | 0.135 | 0.192 | – | – | – | – | – | – | – | – | – | – | 0.462 | 0.808 | 0.562 | 0.535 |
